Assay results as given in US5519038A, “N,N'-bis(alkoxyalkyl)-pyridine-2,4-dicarboxylic acid diamines” (Hoechst Aktiengesellschaft, priority 1989, dated 1996).
One block for each compound: values may come before it.

Columns and labels:
[1] = test system: Clq biosynthesis of macrophages; details: in words; W. Muller et al., 1978; cited from earlier work
[2] = test system: liver hydroxyproline (proline hydroxylase and lysine hydroxylase); test: Pharmacological activity: inhibition of liver hydroxyproline synthesis in CCl4-treated rats; assay type: in vivo; details: versus CCl4 control
[3] = test system: serum 7s-(IV)-collagen (proline hydroxylase and lysine hydroxylase); test: Pharmacological activity: inhibition of serum 7s-(IV)-collagen synthesis in CCl4-treated rats; assay type: in vivo; details: versus CCl4 control
proline hydroxylase [4] = details: in words; K. Majamaa et al., 1984; cited from earlier work
proline hydroxylase [5] = details: in words; Tschank, G. et al., 1987; cited from earlier work
[6] = Enteral absorbability: serum levels after intragastral administration; assay type: in vivo, female Wistar rats; parameters: unit not given here; details: 50 mg/kg perorally (intragastral), mean of 4 measurements
Protocol: The absorbability was investigated on Wistar rats to which the compounds according to the invention were administered intragastrally. The serum level dropped in the first hours after administration of the substance, and after about 5 hours reached a plateau which still fell only slightly. The good absorbability of the substances can be concluded from the initially very high serum level directly after administration of the substances.
Female Wistar rats of about 150 g body weight are given an intragastral administration of 50 mg/kg of the substance under investigation by means of a stomach probe.
In each case 4 rats are anesthetized after 5; 10; 15; 30; 60; 120; 180 and 240 minutes and exsanguinated via the Vena Cava. The blood is centrifuged immediately and the compound administered is extracted from the serum using ether. After the ether has been evaporated, the residue is taken up in […] of mobile phase. The mobile phase consists of 0.05M phosphoric acid and acetonitrile (4:1). 50 μl of this sample are injected into a high performance liquid chromatography column. Detection is performed under UV of 200 nm with a retention time of 2.2 minutes.

[7] = 120 minutes, DL = detection limit

SMILES: c1ccc(-c2ccccn2)nc1 [α, α'-dipyridyl]
Inhibition of Clq biosynthesis of macrophages [1]: leads to an inhibition of the Clq biosynthesis of macrophages

SMILES: CC(C)OCCCNC(=O)c1ccnc(C(=O)NCCCOC(C)C)c1 [20 (from SA-88-0896), N,N'-bis(3-isopropoxypropyl)-pyridine-2,4-dicarboxylic acid diamide, reference compound]
Liver hydroxyproline [% inhibition] ([2]; 2 × 25 mg, p.o.): 49 % inhibition | Serum 7s-(IV)-collagen [% inhibition] ([3]; 2 × 25 mg, p.o.): 11 % inhibition

SMILES: O=C(O)c1ccnc(C(=O)O)c1 [pyridine-2,4-dicarboxylic acid]
Inhibition of proline hydroxylase (proline hydroxylase [4]): inhibited effectively | Activity as inhibitors in the cell culture (proline hydroxylase [5]): effective as inhibitors only in very high concentrations

Serum level (x, SD) ([6]; 5 minutes): 8.9 ± 3.1 | Serum level (x, SD) ([6]; 10 minutes): 11.5 ± 0.6 | Serum level (x, SD) ([6]; 15 minutes): 14.7 ± 1.9 | Serum level (x, SD) ([6]; 30 minutes): 10.7 ± 1.9 | Serum level (x, SD) ([6]; 60 minutes): 11.3 ± 1.5 | Serum level (x, SD) [6, 7]: 5.5 ± 0.9 | Serum level (x, SD) ([6]; 180 minutes, DL = detection limit): 2.9 ± 0.5 | Serum level (x, SD) ([6]; 240 minutes, DL = detection limit): 1.7 ± 0.4
SMILES: COC(CNC(=O)c1ccnc(C(=O)NCC(OC)OC)c1)OC [Example 3, Pyridine-2,4-dicarboxylic acid bis-N,N'-(2-dimethoxyethyl) amide]

SMILES: COCCNC(=O)c1ccnc(C(=O)NCCOC)c1 [19 (from SA-88-0896), N,N'-bis(2-methoxyethyl)-pyridine-2,4-dicarboxylic acid diamide, reference compound]
Liver hydroxyproline [% inhibition] ([2]; 2 × 25 mg, i.p.): 55 % inhibition | Serum 7s-(IV)-collagen [% inhibition] ([3]; 2 × 25 mg, i.p.): 48 % inhibition

SMILES: O=C(O)c1ccc(C(=O)O)nc1 [pyridine-2,5-dicarboxylic acid]
Inhibition of proline hydroxylase (proline hydroxylase [4]): inhibited effectively | Activity as inhibitors in the cell culture (proline hydroxylase [5]): effective as inhibitors only in very high concentrations

Serum level (x, SD) ([6]; 5 minutes): 45.3 ± 15.4 | Serum level (x, SD) ([6]; 10 minutes): 49.8 ± 3.6 | Serum level (x, SD) ([6]; 15 minutes): 39.9 ± 11.0 | Serum level (x, SD) ([6]; 30 minutes): 28.1 ± 3.2 | Serum level (x, SD) ([6]; 60 minutes): 9.4 ± 5.5 | Serum level (x, SD) [6, 7]: 0.3 ± 0.3
SMILES: COCCCNC(=O)c1ccnc(C(=O)NCCCOC)c1 [Example 1, Pyridine-2,4-dicarboxylic acid bis-N,N'-(methoxypropyl) amide]
Liver hydroxyproline [% inhibition] ([2]; 2 × 2 mg, p.o.): 62 % inhibition | Liver hydroxyproline [% inhibition] ([2]; 2 × 10 mg, p.o.): 90 % inhibition | Serum 7s-(IV)-collagen [% inhibition] ([3]; 2 × 2 mg, p.o.): 28 % inhibition | Serum 7s-(IV)-collagen [% inhibition] ([3]; 2 × 10 mg, p.o.): 67 % inhibition

Serum level (x, SD) ([6]; 5 minutes): 51.4 ± 11.2 | Serum level (x, SD) ([6]; 10 minutes): 39.2 ± 4.0 | Serum level (x, SD) ([6]; 15 minutes): 29.4 ± 6.7 | Serum level (x, SD) ([6]; 30 minutes): 15.2 ± 5.6 | Serum level (x, SD) ([6]; 60 minutes): 1.4 ± 1.0
SMILES: CCOCCCNC(=O)c1ccnc(C(=O)NCCCOCC)c1 [Example 2, Pyridine-2,4-dicarboxylic acid bis-N,N'-(ethoxypropyl)amide]
Liver hydroxyproline [% inhibition] ([2]; 2 × 2 mg, p.o.): 25 % inhibition | Liver hydroxyproline [% inhibition] ([2]; 2 × 10 mg, p.o.): 60 % inhibition | Serum 7s-(IV)-collagen [% inhibition] ([3]; 2 × 2 mg, p.o.): 2 % inhibition | Serum 7s-(IV)-collagen [% inhibition] ([3]; 2 × 10 mg, p.o.): 35 % inhibition
